Columns and labels:
[1] = pH 2.7
[2] = system: Phytophthora infestans; assay type: in vivo; conditions: 100 ppm of active ingredient, spray on young tomato plants, inoculated one day after treatment, evaluated 7 days after inoculation
[3] = system: Plasmopara viticola; experiment: Example I: in vivo preventive test on Plasmopara viticola (grapevines); conditions: 10 ppm of active ingredient, spray on young grapevine plants, inoculated after spray coating dried, evaluated 6 days after inoculation
Description: To produce a suitable preparation of active compound, 1 part by weight of active compound is mixed with the stated amounts of solvent and emulsifier, and the concentrate is diluted with water to the desired concentration.
To test for preventive activity, young plants are sprayed with the preparation of active compound at the stated rate of application. After the spray coating has dried on, the plants are inoculated with an aqueous spore suspension of Plasmopara viticola and then remain for 1 day in an incubation cabinet at approximately 20° C. and a relative atmospheric humidity of 100%. The plant is subsequently placed for 4 days in a greenhouse at approximately 21° C. and a relative atmospheric humidity of approximately 90%. The plants are then misted and placed for 1 day in an incubation cabinet.
The test is evaluated 6 days after the inoculation. 0% means an efficacy which corresponds to that of the untreated control, while an efficacy of 100% means that no disease is observed.

Work on CC(CC1CC1)OC(=O)Nc1nc(CON=C(c2ccccc2)c2nc(=O)on2C)cs1 (centres unmarked) [Example 80] yielded a LogP [1] of 3.42.
Cn1oc(=O)nc1C(=NOCc1csc(NC(=O)OCCCCC(F)(F)F)n1)c1ccccc1 [Example 82] showed a LogP [1] of 3.27.
For COc1cccc(C(=NOCc2csc(NC(=O)OCCc3ccccc3)n2)c2nc(=O)on2C)c1 [Example 85], the LogP [1] was 3.39.
COc1cccc(C(=O)Nc2nc(CON=C(c3ccccc3)c3nc(=O)on3C)cs2)c1 [Example 71] showed a LogP [1] of 2.98.
Work on Cn1oc(=O)nc1C(=NOCc1csc(NC(=O)COCc2ccccc2)n1)c1ccccc1 [Example 17] yielded an Eff. % [2] of 100%, an Eff. % [3] of 94% and a LogP [1] of 3.06.
Compound Cn1oc(=O)nc1C(=NOCc1csc(NC(=O)OCCCC2CC2)n1)c1ccccc1 [Example 79] has a LogP [1] of 3.51.
CCCCCOC(=O)Nc1nc(CON=C(c2ccccc2)c2nc(=O)on2C)cs1 [Example 69] gave a LogP [1] of 3.51.
In the case of CCC(C)(C)C(=O)Nc1nc(CON=C(c2ccccc2)c2nc(=O)on2C)cs1 [Example 87], the LogP [1] is reported as 3.13.
For C#CCCCC(=O)Nc1nc(CO/N=C(/c2ccccc2)c2nc(=O)on2C)cs1 [Example 40], the LogP [1] was 2.54.
Cn1oc(=O)nc1/C(=N\OCc1csc(NC(=O)OC(C)(C)C(Cl)(Cl)Cl)n1)c1ccccc1 [Example 51] gave a LogP [1] of 3.96.
Cn1oc(=O)nc1/C(=N\OCc1csc(NC(=O)CCC2CCCC2)n1)c1ccccc1 [Example 43] showed a LogP [1] of 3.58.
Work on Cn1oc(=O)nc1/C(=N\OCc1csc(NC(=O)OCc2ccccc2)n1)c1ccccc1 [Example 96] yielded a LogP [1] of 3.17.
With Cn1oc(=O)nc1C(=NOCc1csc(NC(=O)OCCC2CC2)n1)c1ccccc1 [Example 78] the LogP [1] was 3.15.
C=C(C)COC(=O)Nc1nc(CO/N=C(/c2ccccc2)c2nc(=O)on2C)cs1 [Example 94] showed a LogP [1] of 2.92.
Compound Cn1oc(=O)nc1/C(=N\OCc1csc(NC(=O)OCCC2CCCCC2)n1)c1ccccc1 [Example 45] has a LogP [1] of 4.21.
In the case of Cn1oc(=O)nc1C(=NOCc1csc(NC(=O)OCCCC2CCCCC2)n1)c1ccccc1 [Example 83], the LogP [1] is reported as 4.71.
COc1cccc(/C(=N/OCc2csc(NC(=O)C(C)(C)Oc3ccccc3)n2)c2nc(=O)on2C)c1 [Example 36] showed a LogP [1] of 3.63.
CCCCC(CC)COC(=O)Nc1nc(CON=C(c2ccccc2)c2nc(=O)on2C)cs1 (centres unmarked) [Example 7] showed an Eff. % [2] of 85% and a LogP [1] of 4.56.
CC#CCOC(=O)Nc1nc(CO/N=C(/c2ccccc2)c2nc(=O)on2C)cs1 [Example 47] showed a LogP [1] of 2.66.
C=CCCCCOC(=O)Nc1nc(CON=C(c2ccccc2)c2nc(=O)on2C)cs1 [Example 64] gave a LogP [1] of 3.51.
Cn1oc(=O)nc1C(=NOCc1csc(NC(=O)Cc2ccccc2)n1)c1ccccc1 [Example 65] gave a LogP [1] of 2.82.
With Cn1oc(=O)nc1C(=NOCc1csc(NC(=O)C2(C)CCCCC2)n1)c1ccccc1 [Example 74] the LogP [1] was 3.58.
Compound Cn1oc(=O)nc1C(=NOCc1csc(NC(=O)C2CCCCC2)n1)c1ccccc1 [Example 90] has a LogP [1] of 3.19.
In the case of CC(Oc1ccccc1)C(=O)Nc1nc(CON=C(c2ccccc2)c2nc(=O)on2C)cs1 (centres unmarked) [Example 2], the Eff. % [2] is reported as 97%, the Eff. % [3] is reported as 97% and the LogP [1] is reported as 3.15.
CCn1oc(=O)nc1/C(=N\OCc1csc(NC(=O)OCCc2ccccc2)n1)c1ccccc1 [Example 37] showed a LogP [1] of 3.55.
For CCCCC(C)C(=O)Nc1nc(CO/N=C(/c2ccccc2)c2nc(=O)on2C)cs1 (racemic) [Example 42], the LogP [1] was 3.42.
COCCn1oc(=O)nc1/C(=N\OCc1csc(NC(=O)OCCc2ccccc2)n1)c1ccccc1 [Example 39] showed a LogP [1] of 3.55.
With Cn1oc(=O)nc1/C(=N\OCc1csc(NC(=O)CCc2ccccc2)n1)c1ccccc1 [Example 57] the LogP [1] was 3.09.
In the case of Cn1oc(=O)nc1/C(=N\OCc1csc(NC(=O)C2CCCC2)n1)c1ccccc1 [Example 58], the LogP [1] is reported as 2.88.
For Cn1oc(=O)nc1C(=NOCc1csc(NC(=O)SC(C)(C)C)n1)c1ccccc1 [Example 18], the Eff. % [2] was 97%, the Eff. % [3] was 93% and the LogP [1] was 3.44.
For CC(OC(=O)Nc1nc(CO/N=C(/c2ccccc2)c2nc(=O)on2C)cs1)C1CCCC1 (centres unmarked) [Example 95], the LogP [1] was 3.85.
With CC#CCC(C)OC(=O)Nc1nc(CON=C(c2ccccc2)c2nc(=O)on2C)cs1 (centres unmarked) [Example 81] the LogP [1] was 3.06.
Compound CC(C)CCOC(=O)Nc1nc(CO/N=C(/c2ccccc2)c2nc(=O)on2C)cs1 [Example 55] has a LogP [1] of 3.44.
Work on COc1ccc(CC(=O)Nc2nc(CON=C(c3ccccc3)c3nc(=O)on3C)cs2)cc1 [Example 70] yielded a LogP [1] of 2.80.
Work on CC(C)[C@@H]1CC[C@@H](C)C[C@H]1OC(=O)Nc1nc(CO/N=C(/c2ccccc2)c2nc(=O)on2C)cs1 [Example 50] yielded a LogP [1] of 4.91.
Work on CC=CCCCOC(=O)Nc1nc(CON=C(c2ccccc2)c2nc(=O)on2C)cs1 [Example 77] yielded a LogP [1] of 3.55.
For Cn1oc(=O)nc1C(=NOCc1csc(NC(=O)c2ccccc2)n1)c1ccccc1 [Example 15], the Eff. % [2] was 92% and the LogP [1] was 2.88.
Work on Cn1oc(=O)nc1C(=NOCc1csc(NC(=O)OCC2CC2)n1)c1ccccc1 [Example 88] yielded a LogP [1] of 2.84.
In the case of CCCCCCCC(=O)Nc1nc(CON=C(c2ccccc2)c2nc(=O)on2C)cs1 [Example 13], the Eff. % [2] is reported as 95%, the Eff. % [3] is reported as 99% and the LogP [1] is reported as 3.94.
Cn1oc(=O)nc1/C(=N\OCc1csc(NC(=O)OCCCCl)n1)c1ccccc1 [Example 93] showed a LogP [1] of 2.80.
Cc1cccc(C(=O)Nc2nc(CON=C(c3ccccc3)c3nc(=O)on3C)cs2)c1 [Example 68] showed a LogP [1] of 3.19.
Compound CC(C)C(C)OC(=O)Nc1nc(CO/N=C(/c2ccccc2)c2nc(=O)on2C)cs1 (racemic) [Example 46] has a LogP [1] of 3.35.
Work on COc1cccc(C(=NOCc2csc(NC(=O)CC3CCCC3)n2)c2nc(=O)on2C)c1 [Example 86] yielded a LogP [1] of 3.25.
In the case of Cn1oc(=O)nc1C(=NOCc1csc(NC(=O)OCC#Cc2ccccc2)n1)c1ccccc1 [Example 73], the LogP [1] is reported as 3.44.
For Cn1oc(=O)nc1C(=NOCc1csc(NC(=O)OC2CC3CCC2C3)n1)c1ccccc1 (centres unmarked) [Example 6], the Eff. % [2] was 90% and the LogP [1] was 3.60.
Work on CC(C(=O)Nc1nc(CO/N=C(/c2ccccc2)c2nc(=O)on2C)cs1)c1ccccc1 (racemic) [Example 49] yielded a LogP [1] of 3.15.
With Cn1oc(=O)nc1C(=NOCc1csc(NC(=O)Oc2ccc(F)cc2)n1)c1ccccc1 [Example 5] the LogP [1] was 3.02.
Work on Cn1oc(=O)nc1/C(=N\OCc1csc(NC(=O)CCC2CCCCC2)n1)c1ccccc1 [Example 41] yielded a LogP [1] of 3.92.
Compound CCCCC(=O)Nc1nc(CO/N=C(/c2ccccc2)c2nc(=O)on2C)cs1 [Example 60] has a LogP [1] of 2.80.
Work on Cn1oc(=O)nc1/C(=N\OCc1csc(NC(=O)OCC(C)(C)C)n1)c1ccccc1 [Example 61] yielded a LogP [1] of 3.39.
Compound Cc1ccc(C(=O)Nc2nc(CO/N=C(/c3ccccc3)c3nc(=O)on3C)cs2)cc1 [Example 48] has a LogP [1] of 3.17.
C#CCOC(=O)Nc1nc(CON=C(c2ccccc2)c2nc(=O)on2C)cs1 [Example 67] gave a LogP [1] of 2.49.
With C=CCC(C)OC(=O)Nc1nc(CON=C(c2ccccc2)c2nc(=O)on2C)cs1 (centres unmarked) [Example 76] the LogP [1] was 3.15.
Compound Cn1oc(=O)nc1C(=NOCc1csc(NC(=O)OCC2CCCCC2)n1)c1ccccc1 [Example 63] has a LogP [1] of 3.92.
For CCC#CCOC(=O)Nc1nc(CON=C(c2ccccc2)c2nc(=O)on2C)cs1 [Example 72], the LogP [1] was 2.98.
For COc1cccc(C(=NOCc2csc(NC(=O)COc3ccccc3)n2)c2nc(=O)on2C)c1 [Example 84], the LogP [1] was 3.02.
For CC(OC(=O)Nc1nc(CON=C(c2ccccc2)c2nc(=O)on2C)cs1)C(C)(C)C (centres unmarked) [Example 92], the LogP [1] was 3.65.
Cn1oc(=O)nc1/C(=N\OCc1csc(NC(=O)OCCC2CCCC2)n1)c1ccccc1 [Example 52] gave a LogP [1] of 3.96.
For Cn1oc(=O)nc1/C(=N\OCc1csc(NC(=O)CC2CCCC2)n1)c1ccccc1 [Example 53], the LogP [1] was 3.19.
With Cn1oc(=O)nc1C(=NOCc1csc(NC(=O)C(C)(C)C)n1)c1ccccc1 [Example 3] the Eff. % [2] was 84% and the LogP [1] was 2.84.
Compound CCCCOC(=O)Nc1nc(CO/N=C(/c2ccccc2)c2nc(=O)on2C)cs1 [Example 59] has a LogP [1] of 3.13.
With CC(OC(=O)Nc1nc(CO/N=C(/c2ccccc2)c2nc(=O)on2C)cs1)C1CCCCC1 (racemic) [Example 56] the LogP [1] was 4.31.
Compound CCN(O)C(=N)/C(=N\OCc1csc(NC(=O)COc2ccccc2)n1)c1ccccc1 [Example V-1] has a LogP [1] of 2.42.
With Cn1oc(=O)nc1C(=NOCc1csc(NC(=O)Cc2cccs2)n1)c1ccccc1 [Example 75] the LogP [1] was 2.71.
For Cn1oc(=O)nc1C(=NOCc1csc(NC(=O)c2ccc(F)cc2)n1)c1ccccc1 [Example 91], the LogP [1] was 3.00.
In the case of Cn1oc(=O)nc1C(=NOCc1csc(NC(=O)OCCCC2CCCC2)n1)c1ccccc1 [Example 66], the LogP [1] is reported as 4.36.
Work on CC(C)CC(=O)Nc1nc(CO/N=C(/c2ccccc2)c2nc(=O)on2C)cs1 [Example 62] yielded a LogP [1] of 2.75.
In the case of Cn1oc(=O)nc1C(=NOCc1csc(NC(=O)c2csc3ccccc23)n1)c1ccccc1 [Example 89], the LogP [1] is reported as 3.57.
With CC#CCCOC(=O)Nc1nc(CO/N=C(/c2ccccc2)c2nc(=O)on2C)cs1 [Example 54] the LogP [1] was 2.80.
Work on COc1ccc(OC(=O)Nc2nc(CO/N=C(/c3ccccc3)c3nc(=O)on3C)cs2)cc1 [Example 97] yielded a LogP [1] of 2.94.
Work on CCn1oc(=O)nc1/C(=N\OCc1csc(NC(=O)COc2ccccc2)n1)c1ccccc1 [Example 38] yielded a LogP [1] of 3.17.

— patent US9326515B2, “Fungicidal 3-[(1,3-thiazol-4-ylmethoxyimino)(phenyl)methyl]-2-substituted-1,2,4-oxadiazol-5(2H)-one derivatives” (BAYER INTELLECTUAL PROPERTY GMBH, priority 2011, dated 2016)
